From ChEMBL document CHEMBL3045058, “Comparative QSAR and pharmacophore modeling of substituted 2-[2-(dimethylamino) ethyl]-1, 2-dihydro-3H-dibenz[de,h]isoquinoline-1,3-diones derivatives as anti-tumor activity” (Med Chem Res, 2013)

Key:
[1] = Cytotoxicity against human Ovarian cancer cells; assay type: functional, cell-based; conditions: Cancer cell lines
[2] = Cytotoxicity against human melanoma cells; assay type: functional, cell-based; conditions: Melanoma cell

CN(C)CCN1C(=O)c2cccc3cc4cc(O)ccc4c(c23)C1=O gave a pIC50 [1] of 7.66 and a pIC50 [2] of 8.34.

Molecule CC(=O)Nc1ccc2c3c4c(cccc4cc2c1)C(=O)N(CCN(C)C)C3=O has a pIC50 [1] of 7.89 and a pIC50 [2] of 7.22.

CN(C)CCN1C(=O)c2c(N)ccc3cc4ccccc4c(c23)C1=O gave a pIC50 [1] of 7.92 and a pIC50 [2] of 8.02.

Work on CN(C)CCN1C(=O)c2c(Cl)ccc3cc4ccccc4c(c23)C1=O yielded a pIC50 [1] of 6.75 and a pIC50 [2] of 6.89.

In the case of CN(C)CCN1C(=O)c2cccc3cc4ccc(N)cc4c(c23)C1=O, the pIC50 [1] is reported as 7.7 and the pIC50 [2] is reported as 7.2.

For CC(=O)Nc1ccc2cc3cccc4c3c(c2c1)C(=O)N(CCN(C)C)C4=O, the pIC50 [1] was 7.31 and the pIC50 [2] was 7.01.

In the case of CN(C)CCN1C(=O)c2cccc3cc4c(N)cccc4c(c23)C1=O, the pIC50 [1] is reported as 5.02 and the pIC50 [2] is reported as 4.69.

CN(C)CCN1C(=O)c2cccc3cc4ccc(O)cc4c(c23)C1=O showed a pIC50 [1] of 5.72 and a pIC50 [2] of 5.92.

For CN(C)CCN1C(=O)c2cccc3cc4c(O)cccc4c(c23)C1=O, the pIC50 [1] was 6.67 and the pIC50 [2] was 6.57.

In the case of CN(C)CCN1C(=O)c2cccc3cc4ccc(F)cc4c(c23)C1=O, the pIC50 [1] is reported as 8.17 and the pIC50 [2] is reported as 7.8.

Molecule CN(C)CCN1C(=O)c2cccc3cc4c(I)cccc4c(c23)C1=O has a pIC50 [1] of 5.68 and a pIC50 [2] of 6.08.

Molecule CN(C)CCN1C(=O)c2cccc3cc4ccc(C#N)cc4c(c23)C1=O has a pIC50 [1] of 7.92 and a pIC50 [2] of 7.96.

In the case of CN(C)CCN1C(=O)c2cccc3cc4ccc(-c5ccccc5)cc4c(c23)C1=O, the pIC50 [1] is reported as 6.46 and the pIC50 [2] is reported as 5.73.

With CN(C)CCN1C(=O)c2c(NC(=O)C(C)(C)C)ccc3cc4ccccc4c(c23)C1=O the pIC50 [1] was 6.18 and the pIC50 [2] was 5.06.

CCOc1ccc2cc3cccc4c3c(c2c1)C(=O)N(CCN(C)C)C4=O showed a pIC50 [1] of 7.2 and a pIC50 [2] of 7.12.

CN(C)CCN1C(=O)c2cccc3cc4cc(N)ccc4c(c23)C1=O showed a pIC50 [1] of 7.85 and a pIC50 [2] of 7.35.

CN(C)CCN1C(=O)c2cccc3cc4cccc(N)c4c(c23)C1=O gave a pIC50 [1] of 5.76 and a pIC50 [2] of 6.02.

Molecule CN(C)CCN1C(=O)c2cccc3cc4c([N+](=O)[O-])cccc4c(c23)C1=O has a pIC50 [1] of 7.3 and a pIC50 [2] of 7.42.

CN(C)CCN1C(=O)c2cccc3cc4cccc(Cl)c4c(c23)C1=O showed a pIC50 [1] of 5.05 and a pIC50 [2] of 5.69.

In the case of CN(C)CCN1C(=O)c2cccc3cc4cccc([N+](=O)[O-])c4c(c23)C1=O, the pIC50 [1] is reported as 6.65 and the pIC50 [2] is reported as 7.13.

Molecule CN(C)CCN1C(=O)c2cccc3cc4ccc(Cl)cc4c(c23)C1=O has a pIC50 [1] of 7.11 and a pIC50 [2] of 7.19.

With CN(C)CCN1C(=O)c2cccc3cc4cc(Cl)ccc4c(c23)C1=O the pIC50 [1] was 6.64 and the pIC50 [2] was 7.05.

Work on CN(C)CCN1C(=O)c2cccc3cc4ccc(I)cc4c(c23)C1=O yielded a pIC50 [1] of 6.75 and a pIC50 [2] of 6.2.

COc1cccc2c3c4c(cccc4cc12)C(=O)N(CCN(C)C)C3=O showed a pIC50 [1] of 7.28 and a pIC50 [2] of 7.28.

In the case of CC(=O)Nc1cccc2c3c4c(cccc4cc12)C(=O)N(CCN(C)C)C3=O, the pIC50 [1] is reported as 5.7 and the pIC50 [2] is reported as 5.92.

With CC(=O)Nc1ccc2cc3ccccc3c3c2c1C(=O)N(CCN(C)C)C3=O the pIC50 [1] was 6.21 and the pIC50 [2] was 6.01.

With CC(=O)Nc1cccc2cc3cccc4c3c(c12)C(=O)N(CCN(C)C)C4=O the pIC50 [1] was 5.61 and the pIC50 [2] was 5.61.

With CC(C)C(=O)Nc1ccc2cc3cccc4c3c(c2c1)C(=O)N(CCN(C)C)C4=O the pIC50 [1] was 6.48 and the pIC50 [2] was 6.26.

With CN(C)CCNc1ccc2cc3ccccc3c3c2c1C(=O)N(CCN(C)C)C3=O the pIC50 [1] was 6.24 and the pIC50 [2] was 6.53.

With CN(C)CCN1C(=O)c2cccc3cc4ccc([N+](=O)[O-])cc4c(c23)C1=O the pIC50 [1] was 7.64 and the pIC50 [2] was 7.44.

In the case of CN(C)CCN1C(=O)c2cccc3cc4c(Cl)cccc4c(c23)C1=O, the pIC50 [1] is reported as 7.41 and the pIC50 [2] is reported as 7.11.

Cc1ccc2cc3ccccc3c3c2c1C(=O)N(CCN(C)C)C3=O showed a pIC50 [1] of 6.91 and a pIC50 [2] of 6.75.

Cc1ccc2cc3cccc4c3c(c2c1)C(=O)N(CCN(C)C)C4=O showed a pIC50 [1] of 7.17 and a pIC50 [2] of 7.09.

COc1ccc2cc3ccccc3c3c2c1C(=O)N(CCN(C)C)C3=O showed a pIC50 [1] of 6.3 and a pIC50 [2] of 6.74.

COc1ccc2cc3cccc4c3c(c2c1)C(=O)N(CCN(C)C)C4=O showed a pIC50 [1] of 7.11 and a pIC50 [2] of 7.28.

Molecule CN(C)CCN1C(=O)c2c(O)ccc3cc4ccccc4c(c23)C1=O has a pIC50 [1] of 4.83 and a pIC50 [2] of 5.12.

Molecule CN(C)CCN1C(=O)c2cccc3cc4cccc(O)c4c(c23)C1=O has a pIC50 [1] of 5.72 and a pIC50 [2] of 6.27.

For COc1ccc2c3c4c(cccc4cc2c1)C(=O)N(CCN(C)C)C3=O, the pIC50 [1] was 6.27 and the pIC50 [2] was 6.79.

CN(C)CCN1C(=O)c2cccc3cc4ccccc4c(c23)C1=O [AZONAFIDE] gave a pIC50 [1] of 7.24 and a pIC50 [2] of 7.15.
